# Measured values from ChEMBL document CHEMBL3390836, “Mannich- and LedererManasse-based analogues of the natural product S-(+)-curcuphenol as cancer proliferation and migration inhibitors” (Medchemcomm, 2012).
# Legend:
# MDA-MB-231 [1] = experiment: Cytotoxicity against human MDA-MB-231 cells assessed as cell growth at 10 uM after 48 hrs by SRB assay relative to control; format: functional; conditions: MDA-MB-231, 48 h, read-out: Activity
# TK-10 = experiment: Cytotoxicity against human TK10 cells assessed as cell growth at 10 uM after 48 hrs by SRB assay relative to control; format: functional; conditions: TK-10, 48 h, read-out: Activity
# SN12C = experiment: Cytotoxicity against human SN12C cells assessed as cell growth at 10 uM after 48 hrs by SRB assay relative to control; format: functional; conditions: read-out: Activity
# RXF 393 = experiment: Cytotoxicity against human RXF393 cells assessed as cell growth at 10 uM after 48 hrs by SRB assay relative to control; format: functional; conditions: RXF 393, 48 h, read-out: Activity
# CAKI-1 = experiment: Cytotoxicity against human Caki1 cells assessed as cell growth at 10 uM after 48 hrs by SRB assay relative to control; format: functional; conditions: CAKI-1, 48 h, read-out: Activity
# ACHN = experiment: Cytotoxicity against human ACHN cells assessed as cell growth at 10 uM after 48 hrs by SRB assay relative to control; format: functional; conditions: read-out: Activity
# 786-0 = experiment: Cytotoxicity against human 786-0 cells assessed as cell growth at 10 uM after 48 hrs by SRB assay relative to control; format: functional; conditions: 786-0, 48 h, read-out: Activity
# [2] = Cytotoxicity against human OVCAR5 cells assessed as cell growth at 10 uM after 48 hrs by SRB assay relative to control; format: functional; conditions: OVCAR-5, 48 h, read-out: Activity
# MDA-MB-231 [3] = experiment: Cytotoxicity against human MDA-MB-231 cells assessed as growth inhibition after 24 hrs by MTT assay; format: cell-based; conditions: MDA-MB-231, 24 h
# [4] = Cytotoxicity against human OVCAR4 cells assessed as cell growth at 10 uM after 48 hrs by SRB assay relative to control; format: functional; conditions: OVCAR-4, 48 h, read-out: Activity
# [5] = Cytotoxicity against human OVCAR3 cells assessed as cell growth at 10 uM after 48 hrs by SRB assay relative to control; format: functional; conditions: OVCAR-3, 48 h, read-out: Activity
# IGROV-1 = experiment: Cytotoxicity against human IGROV1 cells assessed as cell growth at 10 uM after 48 hrs by SRB assay relative to control; format: functional; conditions: IGROV-1, 48 h, read-out: Activity
# [6] = Cytotoxicity against human UACC62 cells assessed as cell growth at 10 uM after 48 hrs by SRB assay relative to control; format: functional; conditions: UACC-62, 48 h, read-out: Activity
# SK-MEL-2 = experiment: Cytotoxicity against human SK-MEL-2 cells assessed as cell growth at 10 uM after 48 hrs by SRB assay relative to control; format: functional; conditions: SK-MEL-2, 48 h, read-out: Activity
# MDA-MB-435 = experiment: Cytotoxicity against human MDA-MB-435 cells assessed as cell growth at 10 uM after 48 hrs by SRB assay relative to control; format: functional; conditions: MDA-MB-435, 48 h, read-out: Activity
# M14 = experiment: Cytotoxicity against human M14 cells assessed as cell growth at 10 uM after 48 hrs by SRB assay relative to control; format: functional; conditions: M14, 48 h, read-out: Activity
# U-251 = experiment: Cytotoxicity against human U251 cells assessed as cell growth at 10 uM after 48 hrs by SRB assay relative to control; format: functional; conditions: U-251, 48 h, read-out: Activity
# LOX IMVI = experiment: Cytotoxicity against human LOXIMVI cells assessed as cell growth at 10 uM after 48 hrs by SRB assay relative to control; format: functional; conditions: read-out: Activity
# SNB-75 = experiment: Cytotoxicity against human SNB75 cells assessed as cell growth at 10 uM after 48 hrs by SRB assay relative to control; format: functional; conditions: SNB-75, 48 h, read-out: Activity
# SF-539 = experiment: Cytotoxicity against human SF539 cells assessed as cell growth at 10 uM after 48 hrs by SRB assay relative to control; format: functional; conditions: SF-539, 48 h, read-out: Activity
# SNB-19 = experiment: Cytotoxicity against human SNB19 cells assessed as cell growth at 10 uM after 48 hrs by SRB assay relative to control; format: functional; conditions: SNB-19, 48 h, read-out: Activity
# KM12 = experiment: Cytotoxicity against human KM12 cells assessed as cell growth at 10 uM after 48 hrs by SRB assay relative to control; format: functional; conditions: KM12, 48 h, read-out: Activity
# SW-620 = experiment: Cytotoxicity against human SW620 cells assessed as cell growth at 10 uM after 48 hrs by SRB assay relative to control; format: functional; conditions: SW-620, 48 h, read-out: Activity
# HT-29 = experiment: Cytotoxicity against human HT-29 cells assessed as cell growth at 10 uM after 48 hrs by SRB assay relative to control; format: functional; conditions: HT-29, 48 h, read-out: Activity
# HCC 2998 = experiment: Cytotoxicity against human HCC2998 cells assessed as cell growth at 10 uM after 48 hrs by SRB assay relative to control; format: functional; conditions: HCC 2998, 48 h, read-out: Activity
# [7] = Cytotoxicity against human HCT116 cells assessed as cell growth at 10 uM after 48 hrs by SRB assay relative to control; format: functional; conditions: HCT-116, 48 h, read-out: Activity
# COLO 205 = experiment: Cytotoxicity against human COLO205 cells assessed as cell growth at 10 uM after 48 hrs by SRB assay relative to control; format: functional; conditions: COLO 205, 48 h, read-out: Activity
# NCI-H322M = experiment: Cytotoxicity against human NCI-H322M cells assessed as cell growth at 10 uM after 48 hrs by SRB assay relative to control; format: functional; conditions: read-out: Activity
# NCI-H23 = experiment: Cytotoxicity against human NCI-H23 cells assessed as cell growth at 10 uM after 48 hrs by SRB assay relative to control; format: functional; conditions: NCI-H23, 48 h, read-out: Activity
# [8] = Cytotoxicity against human EKVX cells assessed as cell growth at 10 uM after 48 hrs by SRB assay relative to control; format: functional; conditions: read-out: Activity
# RPMI-8226 = experiment: Cytotoxicity against human RPMI8226 cells assessed as cell growth at 10 uM after 48 hrs by SRB assay relative to control; format: functional; conditions: RPMI-8226, 48 h, read-out: Activity
# K562 = experiment: Cytotoxicity against human K562 cells assessed as cell growth at 10 uM after 48 hrs by SRB assay relative to control; format: functional; conditions: K562, 48 h, read-out: Activity
# HL-60(TB) = experiment: Cytotoxicity against human HL-60(TB) cells assessed as cell growth at 10 uM after 48 hrs by SRB assay relative to control; format: functional; conditions: HL-60, 48 h, read-out: Activity
# CCRF-CEM = experiment: Cytotoxicity against human CCRF-CEM cells assessed as cell growth at 10 uM after 48 hrs by SRB assay relative to control; format: functional; conditions: read-out: Activity
# MDA-MB-231 [9] = experiment: Growth inhibition of human MDA-MB-231 cells after 72 hrs by MTT assay; format: functional, cell-based; conditions: MDA-MB-231, 72 h
# MCF7 = experiment: Growth inhibition of human MCF7 cells after 72 hrs by MTT assay; format: functional, cell-based; conditions: MCF7, 72 h
SMILES,growth at 10 µM (MDA-MB-231 [1]) [%],growth at 10 µM (TK-10) [%],growth at 10 µM (SN12C) [%],growth at 10 µM (RXF 393) [%],growth at 10 µM (CAKI-1) [%],growth at 10 µM (ACHN) [%],growth at 10 µM (786-0) [%],growth at 10 µM [2] [%],IC50 (MDA-MB-231 [3]) [µM],growth at 10 µM [4] [%],growth at 10 µM [5] [%],growth at 10 µM (IGROV-1) [%],growth at 10 µM [6] [%],growth at 10 µM (SK-MEL-2) [%],growth at 10 µM (MDA-MB-435) [%],growth at 10 µM (M14) [%],growth at 10 µM (U-251) [%],growth at 10 µM (LOX IMVI) [%],growth at 10 µM (SNB-75) [%],growth at 10 µM (SF-539) [%],also measured
COc1ccc(CCN2COc3c([C@@H](C)CCC=C(C)C)ccc(C)c3C2)cc1OC,-3,-26,15,-35,8,41,-59,47,> 20,11,16,-44,19,-68,3,-91,-47,-65,61,25,growth at 10 µM (SNB-19): 67%; growth at 10 µM (KM12): -2%; growth at 10 µM (SW-620): -59%; growth at 10 µM (HT-29): -29%; growth at 10 µM (HCC 2998): -99%; growth at 10 µM [7]: -43%; growth at 10 µM (COLO 205): -99%; growth at 10 µM (NCI-H322M): 5%; growth at 10 µM (NCI-H23): -29%; growth at 10 µM [8]: 33%; growth at 10 µM (RPMI-8226): -10%; growth at 10 µM (K562): 13.1%; growth at 10 µM (HL-60(TB)): 18%; growth at 10 µM (CCRF-CEM): 14%; IC50 (MDA-MB-231 [9]): 16.3 µM; IC50 (MCF7): 6.7 µM
CC(C)=CCC[C@H](C)c1ccc(C)c2c1OCN(CC1CCNCC1)C2,64,75,47,55.2,80.2,64,-60.1,76,> 20,86,77.2,78.7,63.5,95,14.7,-95.4,-13,-70.5,62,73,growth at 10 µM (SNB-19): 73%; growth at 10 µM (KM12): 38.4%; growth at 10 µM (SW-620): 28%; growth at 10 µM (HT-29): -68.5%; growth at 10 µM (HCC 2998): -82.1%; growth at 10 µM [7]: -37.2%; growth at 10 µM (COLO 205): 75.9%; growth at 10 µM (NCI-H322M): 98%; growth at 10 µM (NCI-H23): 79%; growth at 10 µM [8]: 81%; growth at 10 µM (RPMI-8226): 23.7%; growth at 10 µM (K562): 0.57%; growth at 10 µM (HL-60(TB)): 13.8%; growth at 10 µM (CCRF-CEM): 26.7%; IC50 (MDA-MB-231 [9]): 14.9 µM; IC50 (MCF7): 8.1 µM
CC(C)=CCC[C@H](C)c1ccc(C)c2c1OCN(CCCCC(=O)O)C2,91.8,86.1,97.6,102,81,98.8,82.6,90.8,> 20,105,112,108,79.7,84,99.4,92.5,106,90.2,91.8,91.8,growth at 10 µM (SNB-19): 92.7%; growth at 10 µM (KM12): 107%; growth at 10 µM (SW-620): 101%; growth at 10 µM (HT-29): 83.3%; growth at 10 µM (HCC 2998): 102%; growth at 10 µM [7]: 88.6%; growth at 10 µM (COLO 205): 110%; growth at 10 µM (NCI-H322M): 112%; growth at 10 µM (NCI-H23): 95.1%; growth at 10 µM [8]: 102%; growth at 10 µM (RPMI-8226): 92.3%; growth at 10 µM (K562): 87.5%; growth at 10 µM (HL-60(TB)): 77.5%; growth at 10 µM (CCRF-CEM): 93.2%; IC50 (MDA-MB-231 [9]): > 50 µM; IC50 (MCF7): > 20 µM
CC(C)=CCC[C@H](C)c1ccc(C)c(CNCCCCC(=O)O)c1O,97.6,105,102,121,90.6,102,100,102,> 20,93.3,108,105,92.3,104,96.1,113,98.1,95,95.4,111,growth at 10 µM (SNB-19): 103%; growth at 10 µM (KM12): 102%; growth at 10 µM (SW-620): 98.3%; growth at 10 µM (HT-29): 101%; growth at 10 µM (HCC 2998): 101%; growth at 10 µM [7]: 101%; growth at 10 µM (COLO 205): 119%; growth at 10 µM (NCI-H322M): 111%; growth at 10 µM (NCI-H23): 98.8%; growth at 10 µM [8]: 97.9%; growth at 10 µM (RPMI-8226): 95.1%; growth at 10 µM (K562): 96.1%; growth at 10 µM (HL-60(TB)): 84.6%; growth at 10 µM (CCRF-CEM): 97.9%; IC50 (MDA-MB-231 [9]): > 50 µM; IC50 (MCF7): > 20 µM
CC(C)=CCC[C@H](C)c1ccc(C)c(CNCC2CCNCC2)c1O,69,89.4,78,65,71.8,81,81.2,82,> 20,88,83,83.4,13.2,102,13.9,46.7,57,37.1,71,84,growth at 10 µM (SNB-19): 84%; growth at 10 µM (KM12): 84%; growth at 10 µM (SW-620): 86%; growth at 10 µM (HT-29): 8.29%; growth at 10 µM (HCC 2998): -3.94%; growth at 10 µM [7]: 63%; growth at 10 µM (COLO 205): -59%; growth at 10 µM (NCI-H322M): 80%; growth at 10 µM (NCI-H23): 84%; growth at 10 µM [8]: 67%; growth at 10 µM (RPMI-8226): 61.7%; growth at 10 µM (K562): 2.65%; growth at 10 µM (HL-60(TB)): 99%; growth at 10 µM (CCRF-CEM): 71.3%; IC50 (MDA-MB-231 [9]): 18.3 µM; IC50 (MCF7): > 20 µM
